# ChEMBL document CHEMBL5143550, “Thiol- and Disulfide-Containing Vancomycin Derivatives Against Bacterial Resistance and Biofilm Formation” (2021)
# Legend:
# Type in all cases: functional
# Enterococcus faecalis [1] = assay: Antibacterial activity against VanB-resistant Enterococcus faecalis ATCC 51299 assessed as inhibition of bacterial growth by standard broth microdilution susceptibility method
# Staphylococcus aureus [2] = assay: Antibacterial activity against vancomycin-intermediate Staphylococcus aureus ATCC NRS1 assessed as inhibition of bacterial growth by standard broth microdilution susceptibility method
# Enterococcus faecalis [3] = assay: Antibacterial activity against VanB-resistant Enterococcus faecalis ATCC 51299 assessed as inhibition of bacterial growth in BHIG medium incubated for 24 hrs by resazurin assay
# Moraxella catarrhalis = assay: Antibacterial activity against Moraxella catarrhalis ATCC 8193 assessed as inhibition of bacterial growth by standard broth microdilution susceptibility method
# Staphylococcus aureus [4] = assay: Antibacterial activity against heterogenous vancomycin-intermediate Staphylococcus aureus ATCC NRS24 assessed as inhibition of bacterial growth by standard broth microdilution susceptibility method
# Enterococcus faecalis [5] = assay: Antibiofilm activity against VanB-resistant Enterococcus faecalis ATCC 51299 assessed as inhibition of biofilm formation by measuring decrease in RFU in BHIG medium incubated for 24 hrs by resazurin assay
# Streptococcus pneumoniae = assay: Antibacterial activity against […] assessed as inhibition of bacterial growth by standard broth microdilution susceptibility method
# Enterococcus gallinarum = assay: Antibacterial activity against VanC-resistant Enterococcus gallinarum ATCC 700221 assessed as inhibition of bacterial growth by standard broth microdilution susceptibility method
# Enterococcus faecalis [6] = assay: Antibacterial activity against VanB-resistant Enterococcus faecalis ATCC 51299 assessed as inhibition of colony formation in BHIG medium incubated for 24 hrs by resazurin assay
# Enterococcus faecalis [7] = assay: Antibiofilm activity against VanB-resistant Enterococcus faecalis ATCC 51299 assessed as inhibition of biofilm formation in BHIG medium incubated for 24 hrs by resazurin assay
# Enterococcus faecium = assay: Antibacterial activity against VanA-resistant Enterococcus faecium MMX0485 assessed as inhibition of bacterial growth by standard broth microdilution susceptibility method
# Clostridioides difficile = assay: Antibacterial activity against Clostridium difficile ATCC 43255 assessed as inhibition of bacterial growth by standard broth microdilution susceptibility method
# Staphylococcus aureus [8] = assay: Antibacterial activity against methicillin-resistant Staphylococcus aureus ATCC 43300 assessed as inhibition of bacterial growth by standard broth microdilution susceptibility method
# Staphylococcus aureus [9] = assay: Antibacterial activity against Staphylococcus aureus ATCC 25923 assessed as inhibition of bacterial growth by standard broth microdilution susceptibility method
SMILES,MIC (Enterococcus faecalis [1]),MIC (Staphylococcus aureus [2]),inhibition (INH) (Enterococcus faecalis [3]),MIC (Moraxella catarrhalis),MIC (Staphylococcus aureus [4]),inhibition (INH) (Enterococcus faecalis [5]),MIC (Streptococcus pneumoniae),MIC (Enterococcus gallinarum),Activity (Enterococcus faecalis [6]),MBIC (Enterococcus faecalis [7]),MIC (Enterococcus faecium),MIC (Clostridioides difficile),MIC (Staphylococcus aureus [8]),MIC (Staphylococcus aureus [9])
CN[C@H](CC(C)C)C(=O)N[C@H]1C(=O)N[C@@H](CC(N)=O)C(=O)N[C@H]2C(=O)N[C@H]3C(=O)N[C@H](C(=O)N[C@H](C(=O)O)c4cc(O)cc(O)c4-c4cc3ccc4O)[C@H](O)c3ccc(c(Cl)c3)Oc3cc2cc(c3O[C@@H]2O[C@H](CO)[C@@H](O)[C@H](O)[C@H]2O[C@H]2C[C@](C)(N)[C@H](O)[C@H](C)O2)Oc2ccc(cc2Cl)[C@H]1O [VANCOMYCIN],16 µg/mL,8 µg/mL,100%,> 32 µg/mL,16 µg/mL,98%,0.12 µg/mL,8 µg/mL,64 µg/mL,64 µg/mL,> 128 µg/mL,0.12 µg/mL,,
CCSSCCNC(=O)[C@H]1NC(=O)[C@H]2NC(=O)[C@H](NC(=O)[C@@H]3NC(=O)[C@H](CC(N)=O)NC(=O)[C@H](NC(=O)[C@@H](CC(C)C)NC)[C@H](O)c4ccc(c(Cl)c4)Oc4cc3cc(c4O[C@@H]3O[C@H](CO)[C@@H](O)[C@H](O)[C@H]3O[C@H]3C[C@](C)(N)[C@H](O)[C@H](C)O3)Oc3ccc(cc3Cl)[C@H]2O)c2ccc(O)c(c2)-c2c(O)cc(O)cc21,1 µg/mL,,100%,,,100%,,8 µg/mL,32 µg/mL,32 µg/mL,,,1 µg/mL,1 µg/mL
CN[C@H](CC(C)C)C(=O)N[C@H]1C(=O)N[C@@H](CC(N)=O)C(=O)N[C@H]2C(=O)N[C@H]3C(=O)N[C@H](C(=O)N[C@H](C(=O)NCCSSCCNC(=O)CCCCC4CCSS4)c4cc(O)cc(O)c4-c4cc3ccc4O)[C@H](O)c3ccc(c(Cl)c3)Oc3cc2cc(c3O[C@@H]2O[C@H](CO)[C@@H](O)[C@H](O)[C@H]2O[C@H]2C[C@](C)(N)[C@H](O)[C@H](C)O2)Oc2ccc(cc2Cl)[C@H]1O (stereo partly drawn),4 µg/mL,2 µg/mL,100%,8 µg/mL,2 µg/mL,100%,0.25 µg/mL,8 µg/mL,16 µg/mL,16 µg/mL,> 32 µg/mL,0.5 µg/mL,2 µg/mL,2 µg/mL
CN[C@H](CC(C)C)C(=O)N[C@H]1C(=O)N[C@@H](CC(N)=O)C(=O)N[C@H]2C(=O)N[C@H]3C(=O)N[C@H](C(=O)N[C@H](C(=O)NCCSSc4ccccn4)c4cc(O)cc(O)c4-c4cc3ccc4O)[C@H](O)c3ccc(c(Cl)c3)Oc3cc2cc(c3O[C@@H]2O[C@H](CO)[C@@H](O)[C@H](O)[C@H]2O[C@H]2C[C@](C)(N)[C@H](O)[C@H](C)O2)Oc2ccc(cc2Cl)[C@H]1O,16 µg/mL,4 µg/mL,100%,> 32 µg/mL,4 µg/mL,99%,0.5 µg/mL,8 µg/mL,16 µg/mL,16 µg/mL,8 µg/mL,0.5 µg/mL,2 µg/mL,4 µg/mL
CN[C@H](CC(C)C)C(=O)N[C@H]1C(=O)N[C@@H](CC(N)=O)C(=O)N[C@H]2C(=O)N[C@H]3C(=O)N[C@H](C(=O)N[C@H](C(=O)NCCCCCCCCS)c4cc(O)cc(O)c4-c4cc3ccc4O)[C@H](O)c3ccc(c(Cl)c3)Oc3cc2cc(c3O[C@@H]2O[C@H](CO)[C@@H](O)[C@H](O)[C@H]2O[C@H]2C[C@](C)(N)[C@H](O)[C@H](C)O2)Oc2ccc(cc2Cl)[C@H]1O,8 µg/mL,2 µg/mL,100%,8 µg/mL,2 µg/mL,98%,0.5 µg/mL,8 µg/mL,8 µg/mL,8 µg/mL,2 µg/mL,4 µg/mL,4 µg/mL,4 µg/mL
CN[C@H](CC(C)C)C(=O)N[C@H]1C(=O)N[C@@H](CC(N)=O)C(=O)N[C@H]2C(=O)N[C@H]3C(=O)N[C@H](C(=O)N[C@H](C(=O)NCCOCCNC(=O)CCCCC4CCSS4)c4cc(O)cc(O)c4-c4cc3ccc4O)[C@H](O)c3ccc(c(Cl)c3)Oc3cc2cc(c3O[C@@H]2O[C@H](CO)[C@@H](O)[C@H](O)[C@H]2O[C@H]2C[C@](C)(N)[C@H](O)[C@H](C)O2)Oc2ccc(cc2Cl)[C@H]1O (stereo partly drawn),4 µg/mL,,100%,,,97%,,8 µg/mL,8 µg/mL,8 µg/mL,,,2 µg/mL,4 µg/mL
CN[C@H](CC(C)C)C(=O)N[C@H]1C(=O)N[C@@H](CC(N)=O)C(=O)N[C@H]2C(=O)N[C@H]3C(=O)N[C@H](C(=O)N[C@H](C(=O)NCCSSCCNC(=O)CCS)c4cc(O)cc(O)c4-c4cc3ccc4O)[C@H](O)c3ccc(c(Cl)c3)Oc3cc2cc(c3O[C@@H]2O[C@H](CO)[C@@H](O)[C@H](O)[C@H]2O[C@H]2C[C@](C)(N)[C@H](O)[C@H](C)O2)Oc2ccc(cc2Cl)[C@H]1O,2 µg/mL,1 µg/mL,100%,2 µg/mL,1 µg/mL,97%,0.25 µg/mL,4 µg/mL,8 µg/mL,8 µg/mL,8 µg/mL,1 µg/mL,0.5 µg/mL,0.5 µg/mL
CN[C@H](CC(C)C)C(=O)N[C@H]1C(=O)N[C@@H](CC(N)=O)C(=O)N[C@H]2C(=O)N[C@H]3C(=O)N[C@H](C(=O)N[C@H](C(=O)NCCSSCCN)c4cc(O)cc(O)c4-c4cc3ccc4O)[C@H](O)c3ccc(c(Cl)c3)Oc3cc2cc(c3O[C@@H]2O[C@H](CO)[C@@H](O)[C@H](O)[C@H]2O[C@H]2C[C@](C)(N)[C@H](O)[C@H](C)O2)Oc2ccc(cc2Cl)[C@H]1O,8 µg/mL,1 µg/mL,98%,> 32 µg/mL,1 µg/mL,86%,≤ 0.03 µg/mL,8 µg/mL,16 µg/mL,16 µg/mL,8 µg/mL,0.5 µg/mL,1 µg/mL,1 µg/mL
